The text below walks through data of patent US20260364080A1, “PYRAZOLO-PYRIMIDINONE COMPOUNDS FOR USE IN METHODS OF INHIBITING WEE1 A KINASE” (Acrivon Therapeutics, Inc., priority 2023, published 2026).

For test [1], the target named is T1, recombinant human Wee1A kinase (Homo sapiens, UniProt P30291).
T1 construct: full length Wee1 kinase was expressed by baculovirus in insect cells; purchased Invitrogen PV3817; host or cells: insect cells (baculovirus)
Kind of test: Wee1A kinase binding assay (LanthaScreen Eu time-resolved FRET). Conditions: 30 nM tracer 178, 5 nM Wee1A kinase, 2 nM Eu-labeled antibody; 60 minutes at room temperature; read-out: Wee1A kinase Binding IC50. In outline: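 Full-length, baculovirus-expressed GST-tagged Wee1A (5 nM) was mixed with 2 nM Eu-anti-GST antibody, 30 nM kinase tracer 178 and compound (1% DMSO). Buffer was 50 mM HEPES pH 7.5, 10 mM MgCl2, 1 mM EGTA, 0.01% Brij-35, incubated 60 min at room temperature. TR-FRET 665/615 nm emission ratios from duplicates were curve-fitted.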

The next test has as its system ACHN cells. Kind of test: Cell Titer Glo viability assay, ACHN cells. The test is classed as cell-based. Conditions: Homo sapiens, 144 h, absolute EC50. In outline:
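Cells grown in MEM with 10% FCS were seeded at 500 (A427), 400 (ACHN) or 250 (DAOY) per well and treated the next day with compound at 17 to 10 000 nM. Viability relative to untreated control was read at 144 h by CellTiter-Glo 2.0.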

Test [2] addresses T2, Myt1 kinase (recombinant PMYT-1) (Homo sapiens, UniProt Q99640).
T2 construct: full length PMYT-1 was expressed by baculovirus in insect cells; purchased Invitrogen A30984; host or cells: insect cells (baculovirus)
T2 sequence (Q99640 1-499): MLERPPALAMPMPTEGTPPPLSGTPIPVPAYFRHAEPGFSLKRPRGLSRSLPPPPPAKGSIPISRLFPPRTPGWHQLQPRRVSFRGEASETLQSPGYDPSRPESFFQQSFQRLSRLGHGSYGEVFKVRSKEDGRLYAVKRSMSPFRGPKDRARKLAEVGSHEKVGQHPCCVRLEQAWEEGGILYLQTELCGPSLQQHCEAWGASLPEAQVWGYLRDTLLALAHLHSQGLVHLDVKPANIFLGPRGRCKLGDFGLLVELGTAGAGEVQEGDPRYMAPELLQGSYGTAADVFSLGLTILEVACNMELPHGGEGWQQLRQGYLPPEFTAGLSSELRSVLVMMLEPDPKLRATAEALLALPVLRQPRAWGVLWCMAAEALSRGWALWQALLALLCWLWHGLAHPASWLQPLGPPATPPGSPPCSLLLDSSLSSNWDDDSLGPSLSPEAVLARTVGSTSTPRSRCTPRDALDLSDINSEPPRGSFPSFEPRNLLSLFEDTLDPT
The test is described as follows: Myt1 kinase binding assay (LanthaScreen Eu Kinase Binding Assay). Conditions: 3 nM tracer 178, 2.5 nM PMYT-1, 1 nM Eu-labeled antibody; read-out: Myt1 kinase Binding IC50. In outline: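 The binding affinity of compounds for Myt1 kinase was measured with a LanthaScreen Europium (Eu) Kinase Binding Assay, a time-resolved FRET format in which test compounds compete against a labeled kinase tracer, and the results were expressed as IC50 values describing compound binding to Myt1.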

For test [3], the target named is T3, Wee1A kinase (CDK1 Tyr15 phosphorylation in ACHN renal cell carcinoma cells) (Homo sapiens, UniProt P30291).
T3 construct: pCDK1 Tyr15 immunofluorescence read-out
Kind of test: High-content imaging of pCdk1 Y15, Wee1A kinase target engagement in ACHN cells. The class given is cell-based. Conditions: 4 h treatment, nuclear positivity for pCdk1 Y15 vs DMSO control, read-out: CDK1 Tyr15 Phosphorylation EC50. The essentials:
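ACHN cells exposed to compound for 4 h over 7–5,000 nM or 0.3–200 nM, then fixed and immunostained for pCDK1 Y15 with DAPI nuclear counterstain. The percentage of pCdk1 Y15 nucleus-positive cells relative to DMSO control was imaged per well; EC50 from dose-response curves.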

Test [4] addresses T4, Myt1 kinase (CDK1 Thr14 phosphorylation in DAOY medulloblastoma cells) (Homo sapiens, UniProt Q99640).
T4 construct: pCDK1 Thr14 AlphaLISA read-out
T4 sequence (Q99640 1-499): T2 sequence (Q99640 1-499)
Kind of test: AlphaLISA assay, Myt1 kinase target engagement (phospho-CDK1 Thr14) in DAOY cells. The test is classed as cell-based. Conditions: 4 h treatment, read-out: CDK1 Thr14 Phosphorylation EC50. In outline: (§1)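 Cells seeded at 10,000 (DAOY) or 20,000 (ACHN) per well, treated 24 h later for 4 h with compound at 7–5000 nM. Lysates analysed by AlphaLISA SureFire Ultra phospho-CDK1 (Thr14) with donor/acceptor beads; EC50 from dose-response curves.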

The next test deals with DAOY cells. Kind of test: Cell Titer Glo viability assay, DAOY cells. The test is classed as cell-based. Conditions: Homo sapiens, 144 h, absolute EC50. The procedure:
Each of an ACHN renal cell carcinoma cell line (ATCC) and a DAOY medulloblastoma cell line, and an A427 lung cancer line were cultured in Minimum Essential Medium Eagle supplemented with 10% fetal calf serum (Sigma), 1% Penicillin-Streptomycin and 10 mM HEPES buffer (HyClone). Cell cultures were kept in a humidified incubator at 37 °C and 5% CO2. Cells were routinely tested for Mycoplasma contamination.
ACHN cells, DAOY cells, or A427 cells were seeded at a density of 400, 250, or 500 cells per well respectively, in tissue culture treated 384 well plates (Corning Costar). After overnight incubation, cells were treated with drugs at concentrations ranging from 17 to 10 000 nM. Viability compared to untreated control was assessed at 144 h using Cell Titer Glo assay 2.0 (Promega). […] “NT” means the compounds was not tested in the indicated cells.

The target in test [5] is T5, Myt1 kinase (CDK1 Thr14 phosphorylation in ACHN renal cell carcinoma cells) (Homo sapiens, UniProt Q99640).
T5 construct: pCDK1 Thr14 AlphaLISA read-out
T5 sequence (Q99640 1-499): T2 sequence (Q99640 1-499)
The test is described as follows: AlphaLISA assay, Myt1 kinase target engagement (phospho-CDK1 Thr14) in ACHN cells. Conditions: ACHN cells (marked *); 4 h treatment. The test is classed as cell-based. In outline:
as §1

Each structure is given as a SMILES string. pEC50, pIC50: −log10 of the molar value.

T1 sequence (P30291 whole entry): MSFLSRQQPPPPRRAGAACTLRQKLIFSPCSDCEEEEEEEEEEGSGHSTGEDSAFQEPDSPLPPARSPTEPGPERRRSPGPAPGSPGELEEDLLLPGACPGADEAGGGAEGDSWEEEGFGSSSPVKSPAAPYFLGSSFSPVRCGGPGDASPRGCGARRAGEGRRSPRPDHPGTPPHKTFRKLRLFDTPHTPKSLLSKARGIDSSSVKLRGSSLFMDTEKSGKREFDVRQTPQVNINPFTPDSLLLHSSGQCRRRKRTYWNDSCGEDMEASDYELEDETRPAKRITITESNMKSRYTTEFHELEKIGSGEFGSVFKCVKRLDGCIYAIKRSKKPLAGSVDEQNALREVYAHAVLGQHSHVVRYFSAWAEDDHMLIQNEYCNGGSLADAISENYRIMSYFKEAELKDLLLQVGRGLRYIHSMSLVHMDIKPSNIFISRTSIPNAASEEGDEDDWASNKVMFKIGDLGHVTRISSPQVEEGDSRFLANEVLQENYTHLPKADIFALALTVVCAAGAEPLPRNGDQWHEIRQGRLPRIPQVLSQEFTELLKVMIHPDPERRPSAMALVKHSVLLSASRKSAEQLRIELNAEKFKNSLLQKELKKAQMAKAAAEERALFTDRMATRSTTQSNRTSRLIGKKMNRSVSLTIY
T3 sequence (P30291 whole entry): as above

For `C=CCn1c(=O)c2cnc(Nc3ccc4c(cnn4C)c3)nc2n1-c1cccc(OC2CCNCC2)n1` [Compound 106, 2-allyl-6-(1-methyl-1H-indazol-5-ylamino)-1-[6-(4-piperidyloxy)-2-pyridyl]-1,2-dihydro-3H-1,2,5,7-tetraazainden-3-one], the pIC50 in test [1] is over 8.00; in test [2], 7.00 to 7.70. Moreover, the pEC50 with ACHN cells is at least 7.00; in test [3], over 7.00; in test [4], 6.30 to 6.70; in the test with DAOY cells it was 6.30 to 7.00.
As for `C=CCn1c(=O)c2cnc(Nc3ccnc(C)c3)nc2n1-c1cccc(OC2CCN(C)CC2)n1` [Compound 112, 1-{6-[(1-methylpiperidin-4-yl)oxy]pyridin-2-yl}-6-[(2-methylpyridin-4-yl)amino]-2-(prop-2-en-1-yl)-1H,2H,3H-pyrazolo[3,4-d]pyrimidin-3-one], the pIC50 was over 8.00 in test [1] and 7.00 to 7.70 in test [2]. For the same molecule, the pEC50 is at least 7.00 with ACHN cells, over 7.00 in test [3], 6.30 to 6.70 in test [4] and 6.30 to 7.00 in the test with DAOY cells.
`CN1CCC(Oc2cccc(-n3c4nc(Nc5ccc6c(cnn6C)c5)ncc4c(=O)n3C)n2)CC1` [Compound 121, 2-methyl-6-(1-methyl-1H-indazol-5-ylamino)-1-[6-(1-methyl-4-piperidyloxy)-2-pyridyl]-1,2-dihydro-3H-1,2,5,7-tetraazainden-3-one]: the pIC50 is over 8.00 in test [1] and 7.00 to 7.70 in test [2]. The pEC50 with ACHN cells is at least 7.00; in test [3], over 7.00; in test [4] it was 6.30 to 6.70; with DAOY cells it was at least 7.00.
Take `C=CCn1c(=O)c2cnc(Nc3cccc(C)c3)nc2n1-c1cccc(OC2CCN(C)CC2)n1` [Compound 191, 2-allyl-1-[6-(1-methyl-4-piperidyloxy)-2-pyridyl]-6-m-toluidino-1,2-dihydro-3H-1,2,5,7-tetraazainden-3-one]: the pIC50 in test [1] was over 8.00; in test [2], over 7.70. Further, the pEC50 in the test on ACHN cells was at least 7.00; in test [3], over 7.00; in test [4], 6.30 to 6.70; with DAOY cells, at least 7.00.
With `C=CCn1c(=O)c2cnc(Nc3ccc(C)nc3)nc2n1-c1cccc(OC2CCN(C)CC2)n1` [Compound 197, 2-allyl-1-[6-(1-methyl-4-piperidyloxy)-2-pyridyl]-6-(6-methyl-3-pyridylamino)-1,2-dihydro-3H-1,2,5,7-tetraazainden-3-one], the pIC50 in test [1] was over 8.00; in test [2] it was 7.00 to 7.70. Also, the pEC50 in the test on ACHN cells was at least 7.00; in test [3], over 7.00; in test [4], 6.00 to 6.30; in the test on DAOY cells, at least 7.00.
Consider `C=CCn1c(=O)c2cnc(Nc3cc(C)cc(F)c3)nc2n1-c1cccc(OC2CCN(C)CC2)n1` [Compound 205, 6-[(3-fluoro-5-methylphenyl)amino]-1-{6-[(1-methylpiperidin-4-yl)oxy]pyridin-2-yl}-2-(prop-2-en-1-yl)-1H,2H,3H-pyrazolo[3,4-d]pyrimidin-3-one], for which the pIC50 in test [1] was over 8.00; in test [2] it was 7.00 to 7.70. Besides, the pEC50 was at least 7.00 in the test on ACHN cells, over 7.00 in test [3], 6.30 to 6.70 in test [4] and 6.30 to 7.00 in the test on DAOY cells.
As for `C=CCn1c(=O)c2cnc(Nc3ccc4c(ccn4C(C)=O)c3)nc2n1-c1cccc(OC2CCN(C)CC2)n1` [Compound 392, 6-((1-acetyl-1H-indol-5-yl)amino)-2-allyl-1-(6-((1-methylpiperidin-4-yl)oxy)pyridin-2-yl)-1,2-dihydro-3H-pyrazolo[3,4-d]pyrimidin-3-one], the values for the pIC50 in test [1] and in test [2] were over 8.00 and 7.00 to 7.70, respectively. Moreover, the pEC50 is at least 7.00 with ACHN cells, over 6.70 in test [5] and over 7.00 in test [3].
On the same counts, the results for `C=CCn1c(=O)c2cnc(Nc3ccc4c(cnn4CC(C)C)c3)nc2n1-c1cccc(OC2CCN(C)CC2)n1` [Compound 394, 2-allyl-6-((1-isobutyl-1H-indazol-5-yl)amino)-1-(6-((1-methylpiperidin-4-yl)oxy)pyridin-2-yl)-1,2-dihydro-3H-pyrazolo[3,4-d]pyrimidin-3-one] are over 8.00, over 7.70, at least 7.00, over 6.70 and over 7.00.
On the same counts, the results for `C=CCn1c(=O)c2cnc(Nc3ccc4nn(C(C)(C)C)cc4c3)nc2n1-c1cccc(OC2CCN(C)CC2)n1` [Compound 396, 2-allyl-6-((2-(tert-butyl)-2H-indazol-5-yl)amino)-1-(6-((1-methylpiperidin-4-yl)oxy)pyridin-2-yl)-1,2-dihydro-3H-pyrazolo[3,4-d]pyrimidin-3-one] are over 8.00, over 7.70, at least 7.00, over 6.70 and over 7.00.
Consider `C=CCn1c(=O)c2cnc(Nc3ccc4c(cnn4CCCF)c3)nc2n1-c1cccc(OC2CCNCC2)n1` [Compound 397, 2-allyl-6-((1-(3-fluoropropyl)-1H-indazol-5-yl)amino)-1-(6-(piperidin-4-yloxy)pyridin-2-yl)-1,2-dihydro-3H-pyrazolo[3,4-d]pyrimidin-3-one], for which the pIC50 was over 8.00 in test [1] and 7.00 to 7.70 in test [2]. For the same molecule, the pEC50 with ACHN cells was at least 7.00; in test [5], 6.00 to 6.30; in test [3], over 7.00.
On the same counts, the results for `C=CCn1c(=O)c2cnc(Nc3ccc4cn(C)nc4c3)nc2n1-c1cccc(OC2CCN(C)CC2)n1` [Compound 398, 2-allyl-6-((2-methyl-2H-indazol-6-yl)amino)-1-(6-((1-methylpiperidin-4-yl)oxy)pyridin-2-yl)-1,2-dihydro-3H-pyrazolo[3,4-d]pyrimidin-3-one] are over 8.00, 7.00 to 7.70, at least 7.00, 6.30 to 6.70 and over 7.00.
In the case of `C=CCn1c(=O)c2cnc(Nc3ccc4c(c3)ncn4C(C)C)nc2n1-c1cccc(OC2CCN(C)CC2)n1` [Compound 400, 2-allyl-6-((1-isopropyl-1H-benzo[d]imidazol-5-yl)amino)-1-(6-((1-methylpiperidin-4-yl)oxy)pyridin-2-yl)-1,2-dihydro-3H-pyrazolo[3,4-d]pyrimidin-3-one], the pIC50 in test [1] was over 8.00; in test [2] it was over 7.70. Moreover, the pEC50 with ACHN cells is at least 7.00; in test [5], 6.30 to 6.70; in test [3], over 7.00.
